Numbers after ± are expanded uncertainties.
Key:
[1] = Crystal; DTA
[2] = Molar enthalpy of transition or fusion; settings: Crystal; DSC

O=C(O)C=Cc1ccc(O)cc1 [3-(4-hydroxyphenyl)-2-propenoic acid]
Normal melting temperature [1]: 221.2 ± 0.5 °C | Molar enthalpy of transition or fusion [2]: 34.3 ± 1 kJ/mol

From the NIST ThermoML archive (doi:10.1021/acs.jced.6b00361)
